In US9459254B2, “Method for determining sensitivity to an anticancer agent” (KEIO UNIVERSITY, priority 2009, dated 2016):

Experiments:
HCT116 cells [1] = assay: MTS assay cell viability after drug exposure, HCT116
Experimental: (§4) Two colorectal cancer lines (HCT116 and DLD-1, obtained from ECACC) were exposed to a drug, and 48 hours and 72 hours after drug exposure, cell viability was determined by means of an MTS assay (CellTiter96™ AQueous One Solution Cell Proliferation Assay, Promega). Drug exposure conditions were as follows. 5-FU (single agent) was used at the following 11 concentrations: control (0 μM), 0.001 μM, 0.01 μM, 0.1 μM, 1 μM, 3 μM, 10 μM, 30 μM, 100 μM, 1,000 μM, and 10,000 μM. SN-38 (single agent) was used at the following 11 concentrations; control (0 nM), 0.001 nM, 0.01 nM, 0.1 nM, 0.3 nM, 1 nM, 3 nM, 10 nM, 30 nM, 100 nM, and 1,000 nM. In the case of 5-FU/SN-38 combination, 5-FU was used at 2 μM, 10 μM, 30 μM, and 100 μM (4 concentrations), and SN-38 was used at 0.001 nM, 0.01 nM, 0.1 nM, 0.3 nM, 1 nM, 3 nM, 10 nM, 30 nM, 100 nM, and 1,000 nM (10 concentrations); i.e., 40 concentrations were employed. […]
(§5) Sensitivity analysis was performed from viability data calculated from MTS assay results. The presence or absence of combined effect was determined through comparison of viability obtained by exposure to a combination with that obtained by exposure to a single agent at the same concentration as employed at the exposure to the combination.

HCT116 cells [2] = assay: SELDI-TOF MS intracellular protein expression after drug exposure, HCT116; assay type: cell-based, human
Experimental: (§1) The 5-FU+SN-38 combination concentration was adjusted to the following four levels: 2 μM+10 nM, 2 μM+100 nM, 100 μM+10 nM, and 100 μM+100 nM, the 5-FU concentration (exposure to single agent) was adjusted to 2 μM and 100 μM, and the SN-38 concentration (exposure to single agent) was adjusted to 10 nM and 100 nM. In addition, the exposure test was conducted at a drug-free concentration (control). That is, nine concentrations in total were employed. Drug exposure time was adjusted to the following four periods of time: 0 hour (just before exposure), 4 hours, 24 hours, and 48 hours. After completion of exposure, cell count was performed, and intracellular proteins were extracted.
(§2) The medium was removed from the dish and washed thrice with ice-cooled PBS. The cells on the dish was collected by scraping with a rubber policeman. The thus-obtained cell suspension was transferred to a 1.5-mL microtube. The cell suspension was centrifuged at 4° C. and 1,200×g for 10 minutes, and the cells were recovered. After removal of the supernatant, a cell lysis buffer (9 mol/L urea, 2% CHAPS, 1 mM DTT, protease-inhibitor cocktail (Sigma)) was added in a volume of 200 μL with respect to 10,000,000 cells. The liquid was subjected to untrasonic treatment under cooling with ice. The thus-treated product was centrifuged at 4° C. and 16,000×g for 20 minutes, and the supernatant was quickly frozen with liquid nitrogen. The frozen product was stored at −80° C. before analysis. An aliquot of the supernatant was subjected to protein quantification (DC Protein Assay Kit, Bio-Rad).
(§3) The protein sample was mixed with a cell lysis buffer (excluding protease inhibitor), to thereby adjust the protein concentration to 2.5 mg/mL. The liquid was further mixed with a dilution/washing buffer (pH: 4.5, 50 mM sodium acetate buffer) (hereinafter referred to simply as “buffer”), to a protein concentration of 0.5 mg/mL. The thus-prepared sample (100 μL) was applied to spots of a cation-exchange ProteinChip array (CM10, Bio-Rad) which had been conditioned in advance with the same buffer. […]

DLD-1 cells [3] = assay: SELDI-TOF MS intracellular protein expression after drug exposure, DLD-1; assay type: cell-based, human
Experimental: as §1, §2, §3

[4] = compared with CPT-11; cited from earlier work
DLD-1 cells [5] = assay: MTS assay cell viability after drug exposure, DLD-1
Experimental: as §4, §5

Row | SMILES | cell viability (HCT116 cells [1]; HCT116, 100 nM SN-38, 72 hours) | intracellular protein A level (m/z 16,450 to 16,620) after drug exposure (HCT116 cells [2]) | intracellular protein B level (m/z 22,080 to 22,310) after drug exposure (HCT116 cells [2]) | intracellular protein A level after drug exposure (DLD-1 cells [3]) | intracellular protein B level after drug exposure (DLD-1 cells [3]) | anti-tumor activity relative to that of CPT-11 [4] | cell viability (DLD-1 cells [5]; DLD-1, 100 nM SN-38, 72 hours) | cell viability (HCT116 cells [1]; HCT116, 100 μM 5-FU, 48 hours) | cell viability (DLD-1 cells [5]; DLD-1, 100 μM 5-FU, 48 hours)
1 | CCc1c2c(nc3ccc(O)cc13)-c1cc3c(c(=O)n1C2)COC(=O)[C@]3(O)CC [SN-38, 7-ethyl-10-hydroxycamptothecin] | about 24% | protein level increase | protein level increase | no significant difference | no significant difference | about 100 times to some thousand times | about 76% |  | 
2 | O=c1[nH]cc(F)c(=O)[nH]1 [5-FU, Fluorouracil] |  | protein level increase |  | no significant difference |  |  |  | about 24% | about 49%
